pEC50, pIC50: −log10 of the molar value. The source made the active and inactive calls. No cut-off for these calls is given here.
Tests used:
Plasmodium falciparum [1] = assay: Resistance index, ratio of IC50 for chloroquine-resistant asexual intraerythrocytic stage of Plasmodium falciparum Dd2 to IC50 for chloroquine-sensitive asexual intraerythrocytic stage of Plasmodium falciparum NF54; assay type: functional
L1210 = assay: Cytotoxicity against mouse L1210 cells assessed as inhibition of cell proliferation by Coulter counter analysis; assay type: cell-based
CCRF-CEM = assay: Cytotoxicity against human CEM cells assessed as inhibition of cell proliferation by Coulter counter analysis; assay type: cell-based
HeLa = assay: Cytotoxicity against human HeLa cells assessed as inhibition of cell proliferation by Coulter counter analysis; assay type: cell-based
[2] = Selectivity index, ratio of IC50 for human HeLa cells to IC50 for chloroquine-sensitive asexual intraerythrocytic stage of Plasmodium falciparum NF54; assay type: toxicity, cell-based; settings: read-out: Ratio IC50
[3] = Selectivity index, ratio of IC50 for human HeLa cells to IC50 for chloroquine-resistant asexual intraerythrocytic stage of Plasmodium falciparum Dd2; assay type: toxicity, cell-based; settings: read-out: Ratio IC50
[4] = Cytotoxicity against human HEL cells assessed as alteration of normal cell morphology by microscopic analysis; assay type: cell-based
[5] = Cytotoxicity against human HEL cells assessed as inhibition of cell viability by colorimetric formazan-based MTS assay
[6] = Cytotoxicity against human HeLa cells assessed as alteration of normal cell morphology by microscopic analysis; assay type: cell-based
[7] = Cytotoxicity against african green monkey Vero cells assessed as alteration of normal cell morphology by microscopic analysis; assay type: cell-based; settings: chlorocebus sabaeus
Human alphaherpesvirus 1 [8] = assay type: functional, cell-based; settings: Human alphaherpesvirus 1, KOS, HEL
Human alphaherpesvirus 2 = assay type: functional, cell-based; settings: Human alphaherpesvirus 2, G, HEL
Human alphaherpesvirus 1 [9] = assay type: functional, cell-based; settings: Human alphaherpesvirus 1, KOS, HEL; remark: listed apart in the source
unidentified adenovirus = assay type: functional, cell-based; settings: HEL
Coxsackievirus [10] = assay type: functional, cell-based; settings: B4, HeLa
Human orthopneumovirus = assay type: functional, cell-based; settings: human respiratory syncytial virus, HeLa
Human respirovirus 3 = assay type: functional; settings: Human respirovirus 3, Vero
[11] = test system: Mammalian orthoreovirus 1; assay type: functional; settings: Mammalian orthoreovirus 1, Vero
Sindbis virus = assay type: functional; settings: Vero
Coxsackievirus [12] = assay type: functional; settings: B4, Vero
Punta Toro virus = assay type: functional; settings: Vero
Human betaherpesvirus 5 [13] = assay type: functional, cell-based; settings: Human betaherpesvirus 5, AD169, HEL
Human betaherpesvirus 5 [14] = assay type: functional, cell-based; settings: Human betaherpesvirus 5, Davis, HEL
Human alphaherpesvirus 3 [15] = assay type: functional, cell-based; settings: Human alphaherpesvirus 3, strain Oka vaccine, HEL
Human alphaherpesvirus 3 [16] = assay type: functional, cell-based; settings: Human alphaherpesvirus 3, 07-1, HEL
[17] = Cytotoxicity against MDCK cells assessed as alteration of normal cell morphology by microscopic analysis; assay type: cell-based, Canis lupus familiaris; settings: dog
[18] = Cytotoxicity against MDCK cells assessed as inhibition of cell viability by colorimetric formazan-based MTS assay; parameters: species or system Canis lupus familiaris; settings: dog
Heme [19] = assay: Binding affinity to monomeric heme (unknown origin) assessed as monomeric heme-compound complex formation up to 37.3 uM by UV-visible absorption spectrophotometry
Plasmodium falciparum [20] = assay: microbe, parasite or virus in culture; settings: NF54
Plasmodium falciparum [21] = assay: microbe, parasite or virus in culture; settings: Dd2
Vaccinia virus = assay: microbe, parasite or virus in culture; settings: Orthopoxvirus vaccinia, HEL
[22] = test system: Vesicular stomatitis virus; assay: microbe, parasite or virus in culture; settings: HEL
[23] = test system: Vesicular stomatitis virus; assay: microbe, parasite or virus in culture; settings: HeLa
Influenza A virus [24] = assay: microbe, parasite or virus in culture; settings: H1N1, MDCK
Influenza A virus [25] = assay: microbe, parasite or virus in culture; settings: H3N2, MDCK
Influenza B virus = assay: microbe, parasite or virus in culture; settings: MDCK
Heme [26] = assay: Binding affinity to monomeric heme (unknown origin) assessed as 1:1 stoichiometry for monomeric heme-compound complex at pH 5.6 by Job's plot analysis
Heme [27] = assay: Binding affinity to monomeric heme (unknown origin) assessed as 1:1 stoichiometry for monomeric heme-compound complex at pH 7.5 by Job's plot analysis
mu-oxodimeric heme = assay: Binding affinity to mu-oxo-heme (unknown origin) assessed as 1:1 stoichiometry for mu-oxo-heme-compound complex at pH 5.8 by Job's plot analysis
Heme [28] = assay: Binding affinity to monomeric heme (unknown origin) assessed as 1:1 ratio of monomeric heme-compound complex at 0.24 mM by mass spectra analysis
Plasmodium falciparum [29] = assay: Potency index, ratio of chloroquine IC50 to test compound IC50 for chloroquine-resistant asexual intraerythrocytic stage of Plasmodium falciparum Dd2; assay type: functional

CSc1nc(-c2ccccc2)c(C#N)c(N2CCN(c3ccnc4cc(Cl)ccc34)CC2)n1
Ratio IC50 (Plasmodium falciparum [1]): 1.6
pIC50 (L1210): < 3.60
pIC50 (CCRF-CEM): < 3.60
pIC50 (HeLa): < 3.60
selectivity ratio [2]: > 1.9
selectivity ratio [3]: > 1.1
MCC [4]: ≥ 100 µM
CC50 [5]: > 100 µM
MCC [6]: > 100 µM
MCC [7]: > 100 µM
pEC50 (Human alphaherpesvirus 1 [8]): < 4.00
pEC50 (Human alphaherpesvirus 2): < 4.00
pEC50 (Human alphaherpesvirus 1 [9]): < 4.00
pEC50 (unidentified adenovirus): < 4.00
pEC50 (Coxsackievirus [10]): < 4.00
pEC50 (Human orthopneumovirus): < 4.00
pEC50 (Human respirovirus 3): < 4.00
pEC50 [11]: < 4.00
pEC50 (Sindbis virus): < 4.00
pEC50 (Coxsackievirus [12]): < 4.00
pEC50 (Punta Toro virus): < 4.00
pEC50 (Human betaherpesvirus 5 [13]): < 4.70
pEC50 (Human betaherpesvirus 5 [14]): < 4.00
pEC50 (Human alphaherpesvirus 3 [15]): < 4.00
pEC50 (Human alphaherpesvirus 3 [16]): < 4.00
MCC [17]: > 100 µM
CC50 [18]: > 100 µM
Activity (Heme [19]): inactive
pIC50 (Plasmodium falciparum [20]): 3.88
pIC50 (Plasmodium falciparum [21]): 3.67
pEC50 (Vaccinia virus): < 4.00
pEC50 [22]: < 4.00
pEC50 [23]: < 4.00
pEC50 (Influenza A virus [24]): < 4.00
pEC50 (Influenza A virus [25]): < 4.00
pEC50 (Influenza B virus): < 4.00

CSc1nc(NCCCCNc2ccnc3cc(Cl)ccc23)c(C#N)c(-c2cccc([N+](=O)[O-])c2)n1
Ratio IC50 (Plasmodium falciparum [1]): 0.81
pIC50 (L1210): 5.68
pIC50 (CCRF-CEM): 5.68
pIC50 (HeLa): 5.96
selectivity ratio [2]: 16
selectivity ratio [3]: 19.7
MCC [4]: ≥ 4 µM
CC50 [5]: 4.2 µM
MCC [6]: 100 µM
MCC [7]: 20 µM
pEC50 (Human alphaherpesvirus 1 [8]): < 5.40
pEC50 (Human alphaherpesvirus 2): < 5.40
pEC50 (Human alphaherpesvirus 1 [9]): < 5.40
pEC50 (unidentified adenovirus): < 5.40
pEC50 (Coxsackievirus [10]): < 4.70
pEC50 (Human orthopneumovirus): < 4.70
pEC50 (Human respirovirus 3): < 5.40
pEC50 [11]: < 5.40
pEC50 (Sindbis virus): < 5.40
pEC50 (Coxsackievirus [12]): < 5.40
pEC50 (Punta Toro virus): < 5.40
pEC50 (Human betaherpesvirus 5 [13]): < 6.10
pEC50 (Human betaherpesvirus 5 [14]): < 6.10
pEC50 (Human alphaherpesvirus 3 [15]): < 6.10
pEC50 (Human alphaherpesvirus 3 [16]): < 6.10
MCC [17]: 20 µM
CC50 [18]: 9.6 µM
Activity (Heme [26]): Active
Activity (Heme [27]): Active
Activity (mu-oxodimeric heme): Active
Activity (Heme [28]): Active
Ratio IC50 (Plasmodium falciparum [29]): 4
pIC50 (Plasmodium falciparum [20]): 7.16
pIC50 (Plasmodium falciparum [21]): 7.25
pEC50 (Vaccinia virus): < 5.40
pEC50 [22]: < 5.40
pEC50 [23]: < 4.70
pEC50 (Influenza A virus [24]): < 5.40
pEC50 (Influenza A virus [25]): < 5.40
pEC50 (Influenza B virus): < 5.40

COc1ccc(-c2nc(SC)nc(NCCCCNc3ccnc4cc(Cl)ccc34)c2C#N)cc1OC
Ratio IC50 (Plasmodium falciparum [1]): 6.65
pIC50 (L1210): 4.74
pIC50 (CCRF-CEM): 4.80
pIC50 (HeLa): 4.70
selectivity ratio [2]: 104
selectivity ratio [3]: 15.5
MCC [4]: ≥ 100 µM
CC50 [5]: 84.1 µM
MCC [6]: 100 µM
MCC [7]: > 100 µM
pEC50 (Human alphaherpesvirus 1 [8]): < 4.00
pEC50 (Human alphaherpesvirus 2): < 4.00
pEC50 (Human alphaherpesvirus 1 [9]): < 4.00
pEC50 (unidentified adenovirus): < 4.70
pEC50 (Coxsackievirus [10]): < 4.70
pEC50 (Human orthopneumovirus): < 4.70
pEC50 (Human respirovirus 3): < 4.00
pEC50 [11]: < 4.00
pEC50 (Sindbis virus): < 4.00
pEC50 (Coxsackievirus [12]): < 4.00
pEC50 (Punta Toro virus): < 4.00
pEC50 (Human betaherpesvirus 5 [13]): < 4.70
pEC50 (Human betaherpesvirus 5 [14]): < 4.70
pEC50 (Human alphaherpesvirus 3 [15]): < 4.70
pEC50 (Human alphaherpesvirus 3 [16]): < 4.70
MCC [17]: 20 µM
CC50 [18]: 10 µM
pIC50 (Plasmodium falciparum [20]): 6.71
pIC50 (Plasmodium falciparum [21]): 5.89
pEC50 (Vaccinia virus): < 4.00
pEC50 [22]: < 4.00
pEC50 [23]: < 4.70
pEC50 (Influenza A virus [24]): < 5.40
pEC50 (Influenza A virus [25]): < 5.40
pEC50 (Influenza B virus): < 5.40

COc1cc(-c2nc(SC)nc(NCCCCNc3ccnc4cc(Cl)ccc34)c2C#N)cc(OC)c1OC
Ratio IC50 (Plasmodium falciparum [1]): 0.98
pIC50 (L1210): 5.42
pIC50 (CCRF-CEM): 5.44
pIC50 (HeLa): 5.47
selectivity ratio [2]: 37.4
selectivity ratio [3]: 37.9
MCC [4]: 4 to 20 µM
CC50 [5]: 1.5 µM
MCC [6]: 20 µM
MCC [7]: 4 µM
pEC50 (Human alphaherpesvirus 1 [8]): < 6.10
pEC50 (Human alphaherpesvirus 2): < 6.10
pEC50 (Human alphaherpesvirus 1 [9]): < 6.10
pEC50 (unidentified adenovirus): < 6.10
pEC50 (Coxsackievirus [10]): < 5.40
pEC50 (Human orthopneumovirus): < 5.40
pEC50 (Human respirovirus 3): < 6.10
pEC50 [11]: < 6.10
pEC50 (Sindbis virus): < 6.10
pEC50 (Coxsackievirus [12]): < 6.10
pEC50 (Punta Toro virus): < 6.10
pEC50 (Human betaherpesvirus 5 [13]): < 5.40
pEC50 (Human betaherpesvirus 5 [14]): < 5.40
pEC50 (Human alphaherpesvirus 3 [15]): < 5.40
pEC50 (Human alphaherpesvirus 3 [16]): < 5.40
MCC [17]: 4 µM
CC50 [18]: 2 µM
Ratio IC50 (Plasmodium falciparum [29]): 3
pIC50 (Plasmodium falciparum [20]): 7.04
pIC50 (Plasmodium falciparum [21]): 7.05
pEC50 (Vaccinia virus): < 6.10
pEC50 [22]: < 6.10
pEC50 [23]: < 5.40
pEC50 (Influenza A virus [24]): < 6.10
pEC50 (Influenza A virus [25]): < 6.10
pEC50 (Influenza B virus): < 6.10

Source: ChEMBL document CHEMBL4000146, “Synthesis, antiplasmodial activity and mechanistic studies of pyrimidine-5-carbonitrile and quinoline hybrids” (Eur J Med Chem, 2015)
